Measurements taken from US8329166B2, “Pluripotent olfactory stem cells” (Academia Sinica, priority 2005, dated 2012).

System: SDF-1
Assay: Western blot of SDF-1 in hypoxia-reoxygenation treated cells pre-treated with pathway inhibitors
Assay type: cell-based, human
Conditions: pre-treatment 10 μM
Procedure: Western blot was also performed to examine the expression of SDF-1, G-CSF, CXCR4, and G-CSF-R in the above-described cells that were treated with hypoxia-reoxygenation. Briefly, cells were placed in a hypoxic chamber (Bug Box, Ruskinn Technology, UK) at 37° C. for 12 hours. The chamber was continuously flushed with 95% N2-5% CO2 to maintain a gas phase PO2 of <1 mmHg (OM-14 oxygen monitor; SensorMedics Corporation, Yorba Linda, Calif.). After each hypoxic treatment, the cells were returned to a 37° C. normoxic incubator (95% air-5% CO2) for different time durations (30 minutes, 1 hour, 4 hours, 12 hours, 24 hours, and 48 hours) of reoxygenation. Cell samples were then collected at each time point and stored at -80° C. For Western blot, the samples were lysed in a buffer containing 320 mM sucrose, 5 mM HEPES, 1 μg/ml leupeptin, 1 μg/ml aprotinin. The resulting lysate were centrifuged at 13,000 g for 15 minutes. The pellet was resuspended in a sample buffer (62.5 mM Tris-HCl, 10% glycerol, 2% SDS, 0.1% bromophenol blue, and 50 mM DTT) and subjected to SDS-polyacrylamide gel (4-12%) electrophoresis. […] The intensity of each detected band was quantified using a Kodak Digital Science 1D Image Analysis System (Eastman Kodak, Rochester, N.Y.). […]

COc1cccc(-c2cc(=O)c3ccccc3o2)c1N [PD98059]
expression of SDF-1: stayed at the control level
